{"source": "paper PMC8384862", "about": "“Identification of new target proteins of a Urotensin-II receptor antagonist using transcriptome-based drug repositioning approach” (Scientific Reports, 2021)", "molecular_target": "T1, sodium-dependent serotonin transporter (Homo sapiens, UniProt P31645)", "T1 construct": "gene SLC6A4; human recombinant, CHO cell membrane", "T1 sequence (P31645 whole entry)": "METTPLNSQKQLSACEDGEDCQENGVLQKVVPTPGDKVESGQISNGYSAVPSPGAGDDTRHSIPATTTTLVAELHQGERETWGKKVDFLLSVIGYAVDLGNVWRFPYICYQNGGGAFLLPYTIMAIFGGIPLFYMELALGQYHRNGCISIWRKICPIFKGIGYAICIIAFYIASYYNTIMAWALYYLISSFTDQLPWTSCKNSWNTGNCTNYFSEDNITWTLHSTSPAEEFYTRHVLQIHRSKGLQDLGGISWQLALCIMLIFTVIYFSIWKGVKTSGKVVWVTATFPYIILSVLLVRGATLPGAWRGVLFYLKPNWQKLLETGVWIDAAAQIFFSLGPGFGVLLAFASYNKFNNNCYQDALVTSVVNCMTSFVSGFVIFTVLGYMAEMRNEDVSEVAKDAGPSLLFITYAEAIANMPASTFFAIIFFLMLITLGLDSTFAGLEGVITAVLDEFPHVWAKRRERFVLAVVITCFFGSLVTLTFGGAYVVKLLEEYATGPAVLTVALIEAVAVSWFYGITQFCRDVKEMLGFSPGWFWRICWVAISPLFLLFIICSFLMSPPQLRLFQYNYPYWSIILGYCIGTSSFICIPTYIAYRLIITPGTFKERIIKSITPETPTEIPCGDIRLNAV", "test": "radioligand displacement of [3H]imipramine on recombinant CHO cell membranes, single dose […]", "format": "binding", "note": "Where a name gives a salt, the structure may show the parent alone."}
{"smiles": "CN(C)c1cccc(NC(=O)N2CCN(Cc3ccc(OC4CCNCC4)c(Br)c3)CC2)c1", "note": "[KR-37524, 4-(3-bromo-4-(piperidin-4-yloxy)benzyl)-N-(3-(dimethylamino)phenyl)piperazine-1-carboxamide dihydrochloride]", "values": [{"measurement": "inhibition at 10 µM", "result": "> 50", "unit": "%"}]}
